Reference: publication PMC11271312 (Nature Communications, 2024)

Columns and labels:
[1] = 80% pooled plasma from rats and 20% PBS (pH 7.4); details: rat, 37 °C, up to […]
[2] = plasma from minipigs dosed intravenously with insulin icodec (2 nmol/kg); details: Göttingen Minipigs, up to 10 days after dosing
[3] = 80% pooled plasma from humans and 20% PBS (pH 7.4); details: human, 37 °C, up to […]
[4] = 80% pooled plasma from dogs and 20% PBS (pH 7.4); details: dog, 37 °C, up to […]
[5] = 80% pooled plasma from minipigs and 20% PBS (pH 7.4); details: minipig, 37 °C, up to […]

Substance	fragment found [1]	fragment found [2]	fragment found [3]	fragment found [4]	fragment found [5]
A14E B16H B25H B29Nε-C20 diacid-LγGlu–2xAdo desB30 human insulin	insulin B-chain with internal disulphide Cys 7–Cys 19, 24 h	free insulin icodec B-chain (disulphide Cys 7–Cys 19)	insulin B-chain with internal disulphide Cys 7–Cys 19, 24 h	insulin B-chain with internal disulphide Cys 7–Cys 19, 96 h	insulin B-chain with internal disulphide Cys 7–Cys 19, 48 h
A14E, B25H, desB30 | C18 diacid	B-chain (internal disulphide bond connecting Cys 7 with Cys 19), 48 h				
A14E, B25H, desB30 | C20 diacid	B-chain (internal disulphide bond connecting Cys 7 with Cys 19), 24 h		B-chain (internal disulphide bond connecting Cys 7 with Cys 19), 96 h		B-chain (internal disulphide bond connecting Cys 7 with Cys 19), 168 h
A14E, desB30 | C18 diacid	B-chain (internal disulphide bond connecting Cys 7 with Cys 19), 24 h				
B16H, desB30 | C18 diacid	B-chain (internal disulphide bond connecting Cys 7 with Cys 19), 24 h		B-chain (internal disulphide bond connecting Cys 7 with Cys 19), 24 h	B-chain (internal disulphide bond connecting Cys 7 with Cys 19), 24 h	B-chain (internal disulphide bond connecting Cys 7 with Cys 19), 5 h
B25H, desB30 | C18 diacid	B-chain (internal disulphide bond connecting Cys 7 with Cys 19), 5 h				
desB30 | C18 diacid	B-chain (internal disulphide bond connecting Cys 7 with Cys 19), 2.5 h				
